Among the data in patent US8906933B2, “Dihydropyrimidin-2(1H)-one compounds as neurokinin-3 receptor antagonists” (N30 Pharmaceuticals, Inc., priority 2010, dated 2014) are inhibition values, retold here.

T1 sequence (P29371 whole entry): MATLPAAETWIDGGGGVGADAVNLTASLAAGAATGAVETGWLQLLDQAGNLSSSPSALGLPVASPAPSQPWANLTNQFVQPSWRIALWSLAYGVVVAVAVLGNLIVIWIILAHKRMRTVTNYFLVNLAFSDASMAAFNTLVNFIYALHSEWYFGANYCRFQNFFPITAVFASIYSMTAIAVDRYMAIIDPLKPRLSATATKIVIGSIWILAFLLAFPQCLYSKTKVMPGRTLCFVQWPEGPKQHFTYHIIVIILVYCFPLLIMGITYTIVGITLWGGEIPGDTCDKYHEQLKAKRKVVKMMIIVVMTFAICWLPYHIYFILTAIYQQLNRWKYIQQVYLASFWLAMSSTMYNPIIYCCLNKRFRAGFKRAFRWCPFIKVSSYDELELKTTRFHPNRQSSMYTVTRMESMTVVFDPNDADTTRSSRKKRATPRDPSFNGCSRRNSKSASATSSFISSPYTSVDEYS

One assay has as its target T1, human NK3 receptor (Homo sapiens (Human), UniProt P29371). Nature of the assay: Human NK3 receptor binding assay at 10 μM. Particulars: 10 μM test compound; [3H]SR142801, CHO cell membranes; read-out: percent inhibition at 10 μM. As for the experimental part:
Antagonist activity was evaluated at a concentration of 10 μM for a representative subset of test compounds, and the results were expressed as the percent inhibition at that concentration.
Each test compound was evaluated at a single concentration of 10 μM. […] The results are expressed as a percent of control specific binding ((measured specific binding/control specific binding)×100) obtained in the presence of the test compounds.
As to `CCOc1cc(C2NC(=O)NC(c3ccccc3)=C2c2ccsc2)cc([N+](=O)[O-])c1O` (stereo not shown) [4-(3-ethoxy-4-hydroxy-5-nitrophenyl)-6-phenyl-5-(thiophen-3-yl)-3,4-dihydropyrimidin-2(1H)-one], the inhibition at 10 µM was over 50%.
Turning to `CCOc1cc(C2NC(=O)NC(c3ccoc3)=C2c2ccccc2)cc([N+](=O)[O-])c1O` (stereo not shown) [4-(3-ethoxy-4-hydroxy-5-nitrophenyl)-6-(furan-3-yl)-5-phenyl-3,4-dihydropyrimidin-2(1H)-one], the inhibition at 10 µM was over 50%.
As to `CCOc1cc(C2NC(=O)NC(c3cccs3)=C2c2ccccc2)cc([N+](=O)[O-])c1O` (stereo not shown) [4-(3-ethoxy-4-hydroxy-5-nitrophenyl)-5-phenyl-6-(thiophen-2-yl)-3,4-dihydropyrimidin-2(1H)-one], the inhibition at 10 µM was over 50%.
In the case of `CCOc1cc(C2NC(=O)NC(c3cccnc3)=C2c2ccccc2)cc([N+](=O)[O-])c1O` (stereo not shown) [4-(3-ethoxy-4-hydroxy-5-nitrophenyl)-5-phenyl-6-(pyridin-3-yl)-3,4-dihydropyrimidin-2(1H)-one], the inhibition at 10 µM was over 50%.
Take `CCOc1cc(C2NC(=O)NC(c3ccsc3)=C2c2ccccc2)cc([N+](=O)[O-])c1O` (stereo not shown) [4-(3-ethoxy-4-hydroxy-5-nitrophenyl)-5-phenyl-6-(thiophen-3-yl)-3,4-dihydropyrimidin-2(1H)-one]: the inhibition at 10 µM is over 50%.

Staying with this assay, now noted: read-out: NK3, % inhibition @ 10 μM; 10 μM test compound; [3H]SR142801, CHO cell membranes.
On to `CCOc1cc(C2NC(=O)NC(c3ccccc3)=C2c2ccsc2)cc([N+](=O)[O-])c1O` (stereo not shown) [4-(3-ethoxy-4-hydroxy-5-nitrophenyl)-6-phenyl-5-(thiophen-3-yl)-3,4-dihydropyrimidin-2(1H)-one], for which the inhibition at 10 µM is 97%.
For the molecule `CCOc1cc(C2NC(=O)NC(c3cccnc3)=C2c2ccccc2)cc([N+](=O)[O-])c1O` (stereo not shown) [4-(3-ethoxy-4-hydroxy-5-nitrophenyl)-5-phenyl-6-(pyridin-3-yl)-3,4-dihydropyrimidin-2(1H)-one], the inhibition at 10 µM came to 92%.

A further assay deals with T1, human NK3 receptor. The assay is described as follows: Human NK3 receptor binding assay at 1 uM. Particulars: 1 μM test compound; [3H]SR142801, CHO cell membranes; read-out: percent inhibition at 1 μM. The protocol:
Antagonist activity was evaluated at a concentration of 1 μM for a representative subset of test compounds, and the results were expressed as the percent inhibition at that concentration.
Each test compound was evaluated at a single concentration of 1 μM. […] The results are expressed as a percent of control specific binding ((measured specific binding/control specific binding)×100) obtained in the presence of the test compounds.
Regarding `CCOc1cc(C2NC(=O)NC(c3ccc(F)c(F)c3)=C2c2ccccc2)cc([N+](=O)[O-])c1O` (stereo not shown) [6-(3,4-difluorophenyl)-4-(3-ethoxy-4-hydroxy-5-nitrophenyl)-5-phenyl-3,4-dihydropyrimidin-2(1H)-one], the inhibition at 1 µM is over 50%.
Consider `CCOc1cc(C2NC(=O)NC(c3ccccc3)=C2c2ccc(C)cc2)cc([N+](=O)[O-])c1O` (stereo not shown) [4-(3-ethoxy-4-hydroxy-5-nitrophenyl)-6-phenyl-5-p-tolyl-3,4-dihydropyrimidin-2(1H)-one], for which the inhibition at 1 µM is over 50%.
With `CCOc1cc(C2NC(=O)NC(c3cccc(Cl)c3)=C2c2ccccc2)cc([N+](=O)[O-])c1O` (stereo not shown) [6-(3-chlorophenyl)-4-(3-ethoxy-4-hydroxy-5-nitrophenyl)-5-phenyl-3,4-dihydropyrimidin-2(1H)-one], the inhibition at 1 µM is over 50%.
As for `N#Cc1cccc(C2NC(=O)NC(c3ccccc3)=C2c2ccccc2)c1O` (stereo not shown) [2-hydroxy-3-(2-oxo-5,6-diphenyl-1,2,3,4-tetrahydropyrimidin-4-yl)benzonitrile], the inhibition at 1 µM was over 50%.
Consider `CCOc1cc(C2NC(=O)NC(c3ccccc3)=C2c2ccc(Cl)cc2)cc([N+](=O)[O-])c1O` (stereo not shown) [5-(4-chlorophenyl)-4-(3-ethoxy-4-hydroxy-5-nitrophenyl)-6-phenyl-3,4-dihydropyrimidin-2(1H)-one], for which the inhibition at 1 µM is over 50%.
For the molecule `CCOc1cc(C2NC(=O)NC(c3ccc(Cl)cc3)=C2c2ccccc2)cc([N+](=O)[O-])c1O` (stereo not shown) [6-(4-chlorophenyl)-4-(3-ethoxy-4-hydroxy-5-nitrophenyl)-5-phenyl-3,4-dihydropyrimidin-2(1H)-one], the inhibition at 1 µM was over 50%.
Same read-out and setting: with `CCOc1cc(C2NC(=O)NC(c3ccccc3F)=C2c2ccccc2)cc([N+](=O)[O-])c1O` (stereo not shown) [4-(3-ethoxy-4-hydroxy-5-nitrophenyl)-6-(2-fluorophenyl)-5-phenyl-3,4-dihydropyrimidin-2(1H)-one] the figure was over 50%; with `CCOc1cc(C2NC(=O)NC(c3ccccc3)=C2c2ccccc2)cc(Br)c1O` (stereo not shown) [4-(3-bromo-5-ethoxy-4-hydroxyphenyl)-5,6-diphenyl-3,4-dihydropyrimidin-2(1H)-one], over 50%; with `CCOc1cc(C2NC(=O)NC(c3cc(F)cc(F)c3)=C2c2ccccc2)cc([N+](=O)[O-])c1O` (stereo not shown) [6-(3,5-difluorophenyl)-4-(3-ethoxy-4-hydroxy-5-nitrophenyl)-5-phenyl-3,4-dihydropyrimidin-2(1H)-one], over 50%.
In the case of `CCOc1cc(C2NC(=O)NC(c3ccc(C(F)(F)F)cc3)=C2c2ccccc2)cc([N+](=O)[O-])c1O` (stereo not shown) [4-(3-ethoxy-4-hydroxy-5-nitrophenyl)-5-phenyl-6-(4-(trifluoromethyl)phenyl)-3,4-dihydropyrimidin-2(1H)-one], the inhibition at 1 µM was over 50%.
On the same count and under the same terms, with `O=C1NC(c2ccccc2)=C(c2ccccc2)C(c2ccc(O)c([N+](=O)[O-])c2)N1` (stereo not shown) [4-(4-hydroxy-3-nitrophenyl)-5,6-diphenyl-3,4-dihydropyrimidin-2(1H)-one] the figure was over 50%; with `CCOc1cc(C2NC(=O)NC(c3ccccc3)=C2c2ccccc2C)cc([N+](=O)[O-])c1O` (stereo not shown) [4-(3-ethoxy-4-hydroxy-5-nitrophenyl)-6-phenyl-5-o-tolyl-3,4-dihydropyrimidin-2(1H)-one], over 50%.
Take `CCOc1cc(C2NC(=O)NC(c3ccccc3)=C2c2ccccc2)cc(F)c1O` (stereo not shown) [4-(3-ethoxy-5-fluoro-4-hydroxyphenyl)-5,6-diphenyl-3,4-dihydropyrimidin-2(1H)-one]: the inhibition at 1 µM is over 50%.
Still for that read-out and setting: then `CCOc1cc(C2NC(=O)NC(c3ccccc3)=C2c2ccccc2)cc2[nH]c(=O)oc12` (stereo not shown) [7-ethoxy-5-(2-oxo-5,6-diphenyl-1,2,3,4-tetrahydropyrimidin-4-yl)benzo[d]oxazol-2(3H)-one], with over 50%; and `CCOc1cc(C2NC(=O)NC(C3CCCC3)=C2c2ccccc2)cc([N+](=O)[O-])c1O` (stereo not shown) [6-cyclopentyl-4-(3-ethoxy-4-hydroxy-5-nitrophenyl)-5-phenyl-3,4-dihydropyrimidin-2(1H)-one], with over 50%.
On the same count and under the same terms, with `CCOc1cc(C2NC(=O)NC(c3ccccc3)=C2c2cccc(CC)c2)cc([N+](=O)[O-])c1O` (stereo not shown) [4-(3-ethoxy-4-hydroxy-5-nitrophenyl)-5-(3-ethylphenyl)-6-phenyl-3,4-dihydropyrimidin-2(1H)-one] the figure was over 50%.
Take `CCOc1cc(C2NC(=O)NC(c3ccccc3)=C2c2ccc(F)c(F)c2)cc([N+](=O)[O-])c1O` (stereo not shown) [5-(3,4-difluorophenyl)-4-(3-ethoxy-4-hydroxy-5-nitrophenyl)-6-phenyl-3,4-dihydropyrimidin-2(1H)-one]: the inhibition at 1 µM is over 50%.
For `CCOc1cc(C2NC(=O)NC(c3ccc(F)c(Cl)c3)=C2c2ccccc2)cc([N+](=O)[O-])c1O` (stereo not shown) [6-(3-chloro-4-fluorophenyl)-4-(3-ethoxy-4-hydroxy-5-nitrophenyl)-5-phenyl-3,4-dihydropyrimidin-2(1H)-one], the inhibition at 1 µM was over 50%.
On to `CCOc1cc(C2NC(=O)NC(c3ccccc3)=C2c2cccc(F)c2)cc([N+](=O)[O-])c1O` (stereo not shown) [4-(3-ethoxy-4-hydroxy-5-nitrophenyl)-5-(3-fluorophenyl)-6-phenyl-3,4-dihydropyrimidin-2(1H)-one], for which the inhibition at 1 µM was over 50%.
On the same count and under the same terms, then `CCOc1cc(C2NC(=O)NC(c3ccc(F)cc3)=C2c2ccccc2)cc([N+](=O)[O-])c1O` (stereo not shown) [4-(3-ethoxy-4-hydroxy-5-nitrophenyl)-6-(4-fluorophenyl)-5-phenyl-3,4-dihydropyrimidin-2(1H)-one], with over 50%; and `CCOc1cc(C2NC(=O)NC(c3ccccc3)=C2c2ccccc2Cl)cc([N+](=O)[O-])c1O` (stereo not shown) [5-(2-chlorophenyl)-4-(3-ethoxy-4-hydroxy-5-nitrophenyl)-6-phenyl-3,4-dihydropyrimidin-2(1H)-one], with over 50%.

One may read the inhibition as the drop in the measured response relative to a control, in per cent.
